According to patent US11739100B2, “2,3-dihydro-1h-imidazo{1,2-a}pyrimidin-5-one and this 1,2,3,4-tetrahydropyrimido{1,2-a}pyrimidin-6-one derivatives comprising a substituted morpholine, preparation thereof and pharmaceutical use thereof” (SANOFI, priority 2012, dated 2023):

The compounds below were run against T1, recombinant Vps34 (Homo sapiens, UniProt Q8NEB9) (assay: Phosphorylation of phosphatidylinositol (PI) by Vps34 in vitro, ADP detected by TR-FRET (HTRF Transcreener ADP)). Settings: 10 μM ATP, 55 μg/ml PI, approximately 3 nM Vps34, 1 hour at ambient temperature; absolute IC50, mean of two independent experiments; read-out: IC50 activity range.
T1 construct: purchased Invitrogen PV5126
Format: biochemical

T1 sequence (Q8NEB9 whole entry): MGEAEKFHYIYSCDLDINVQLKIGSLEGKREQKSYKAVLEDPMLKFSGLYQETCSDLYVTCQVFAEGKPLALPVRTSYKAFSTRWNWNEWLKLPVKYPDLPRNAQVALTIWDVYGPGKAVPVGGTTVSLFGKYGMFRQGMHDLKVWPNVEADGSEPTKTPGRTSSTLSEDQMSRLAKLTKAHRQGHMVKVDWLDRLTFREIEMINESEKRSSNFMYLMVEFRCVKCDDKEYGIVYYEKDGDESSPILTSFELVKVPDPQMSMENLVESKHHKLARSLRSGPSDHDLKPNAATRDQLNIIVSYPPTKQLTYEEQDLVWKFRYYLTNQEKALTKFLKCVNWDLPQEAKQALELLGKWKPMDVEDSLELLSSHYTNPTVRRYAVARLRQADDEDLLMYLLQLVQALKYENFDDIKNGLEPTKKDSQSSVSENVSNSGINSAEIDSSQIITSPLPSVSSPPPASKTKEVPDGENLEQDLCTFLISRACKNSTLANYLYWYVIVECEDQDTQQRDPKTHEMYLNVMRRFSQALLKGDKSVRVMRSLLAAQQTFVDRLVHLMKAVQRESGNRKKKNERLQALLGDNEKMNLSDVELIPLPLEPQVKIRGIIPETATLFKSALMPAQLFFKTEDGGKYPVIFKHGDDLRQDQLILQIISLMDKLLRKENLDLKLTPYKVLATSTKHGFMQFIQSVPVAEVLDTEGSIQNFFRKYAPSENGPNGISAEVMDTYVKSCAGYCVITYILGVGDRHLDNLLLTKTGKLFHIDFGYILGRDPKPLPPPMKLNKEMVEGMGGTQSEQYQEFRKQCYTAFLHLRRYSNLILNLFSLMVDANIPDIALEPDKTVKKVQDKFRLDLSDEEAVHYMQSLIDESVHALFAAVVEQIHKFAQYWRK

Row | IC50 | SMILES
1 | 10 to 100 nM | CC(=O)CN1CC[C@H](C(F)(F)F)n2c1nc(N1CCOC[C@H]1C)cc2=O [Example 145, (R)-2-((R)-3-Methyl-morpholin-4-yl)-9-(2-oxopropyl)-6-trifluoromethyl-6,7,8,9-tetrahydro-pyrimido[1,2-a]-pyrimidin-4-one]
2 | < 10 nM | Cc1nocc1CN1CC[C@H](C(F)(F)F)n2c1nc(N1CCOC[C@H]1C)c(F)c2=O [Example 146, (R)-3-Fluoro-9-(3-methylisoxazol-4-yl-methyl)-2-((R)-3-methylmorpholin-4-yl)-6-trifluoromethyl-6,7,8,9-tetrahydro-pyrimido[1,2-a]-pyrimidin-4-one]
3 | < 10 nM | C[C@@H]1COCCN1c1nc2n(c(=O)c1F)[C@@H](C(F)(F)F)CCN2Cc1nc(C2CC2)no1 [Example 147, (R)-9-(3-Cyclopropyl-[1,2,4]oxadiazol-5-yl-methyl)-3-fluoro-2-((R)-3-methyl-morpholin-4-yl)-6-trifluoromethyl-6,7,8,9-tetrahydro-pyrimido[1,2-a]-pyrimidin-4-one]
4 | 10 to 100 nM | CC(=O)CN1CC[C@H](C(F)(F)F)n2c1nc(N1CCOC[C@H]1C)c(F)c2=O [Example 148, (R)-3-Fluoro-2-((R)-3-methylmorpholin-4-yl)-9-(2-oxopropyl)-6-trifluoromethyl-6,7,8,9-tetrahydro-pyrimido[1,2-a]-pyrimidin-4-one]
5 | < 10 nM | Cc1noc(CN2CC[C@H](C(F)(F)F)n3c2nc(N2CCOC[C@H]2C)c(F)c3=O)n1 [Example 149, (R)-3-Fluoro-2-((R)-3-methylmorpholin-4-yl)-9-(3-methyl-[1,2,4]oxadiazol-5-yl-methyl)-6-trifluoromethyl-6,7,8,9-tetrahydro-pyrimido[1,2-a]-pyrimidin-4-one]
6 | 10 to 100 nM | CC1(C)COCCN1c1cc(=O)n2c(n1)N(CC(=O)c1ccccc1)[C@H](C(F)(F)F)CC2 [Example 150, (S)-2-(3,3-Dimethyl-morpholin-4-yl)-9-(2-oxo-2-phenylethyl)-8-trifluoromethyl-6,7,8,9-tetrahydro-pyrimido[1,2-a]-pyrimidin-4-one]
7 | 10 to 100 nM | C[C@@H]1COC[C@H](C)N1c1cc(=O)n2c(n1)N(Cc1ccc(Cl)s1)[C@H](C(F)(F)F)CC2 [Example 151, (S)-9-(5-Chloro-thiophen-2-ylmethyl)-2-((3S,5R)-3,5-dimethylmorpholin-4-yl)-8-trifluoromethyl-6,7,8,9-tetrahydro-pyrimido[1,2-a]-pyrimidin-4-one]
8 | < 10 nM | C[C@@H]1COC[C@@H](C)N1c1cc(=O)n2c(n1)N(Cc1ccnn1C(F)F)[C@H](C(F)(F)F)CC2 [Example 154, (S)-9-(2-Difluoromethyl-2H-pyrazol-3-ylmethyl)-2-((3R,5R)-3,5-dimethyl-morpholin-4-yl)-8-trifluoromethyl-6,7,8,9-tetrahydro-pyrimido[1,2-a]-pyrimidin-4-one]
9 | < 10 nM | Cc1cc(CN2c3nc(N4[C@H](C)COC[C@H]4C)cc(=O)n3CC[C@H]2C(F)(F)F)on1 [Example 155, (S)-2-((3R,5R)-3,5-Dimethylmorpholin-4-yl)-9-(3-methyl-isoxazol-5-ylmethyl)-8-trifluoromethyl-6,7,8,9-tetrahydro-pyrimido[1,2-a]-pyrimidin-4-one]
10 | 10 to 100 nM | C[C@@H]1COC[C@@H](C)N1c1cc(=O)n2c(n1)N(Cc1ccc(Cl)nc1)[C@H](C(F)(F)F)CC2 [Example 156, (S)-9-(6-Chloro-pyridin-3-ylmethyl)-2-((3R,5R)-3,5-dimethyl-morpholin-4-yl)-8-trifluoromethyl-6,7,8,9-tetrahydro-pyrimido[1,2-a]-pyrimidin-4-one]
11 | < 10 nM | C[C@@H]1COC[C@@H](C)N1c1cc(=O)n2c(n1)N(Cc1ccnc(Cl)c1)[C@H](C(F)(F)F)CC2 [Example 157, (S)-9-(2-Chloro-pyridin-4-ylmethyl)-2-((3R,5R)-3,5-dimethyl-morpholin-4-yl)-8-trifluoromethyl-6,7,8,9-tetrahydro-pyrimido[1,2-a]-pyrimidin-4-one]
12 | < 10 nM | C[C@@H]1COC[C@@H](C)N1c1cc(=O)n2c(n1)N(Cc1ncco1)[C@H](C(F)(F)F)CC2 [Example 158, (S)-2-((3R,5R)-3,5-Dimethylmorpholin-4-yl)-9-oxazol-2-yl-methyl-8-trifluoromethyl-6,7,8,9-tetrahydro-pyrimido[1,2-a]-pyrimidin-4-one]
13 | < 10 nM | C[C@@H]1COC[C@@H](C)N1c1cc(=O)n2c(n1)N(c1ccnc(Cl)c1)[C@H](C(F)(F)F)CC2 [Example 159, (S)-9-(2-Chloro-pyridin-4-yl)-2-((3R,5R)-3,5-dimethyl-morpholin-4-yl)-8-trifluoromethyl-6,7,8,9-tetrahydro-pyrimido[1,2-a]-pyrimidin-4-one]
14 | < 10 nM | C[C@@H]1COC[C@@H](C)N1c1cc(=O)n2c(n1)N(c1cccnc1)[C@H](C(F)(F)F)CC2 [Example 160, (S)-2-((3R,5R)-3,5-Dimethylmorpholin-4-yl)-9-pyridin-3-yl-8-trifluoromethyl-6,7,8,9-tetrahydro-pyrimido[1,2-a]-pyrimidin-4-one]
15 | 10 to 100 nM | O=c1cc(N2CC3CCC(C2)O3)nc2n1CC[C@@H](C(F)(F)F)N2c1cc(F)cc(F)c1 [Example 161, (S)-9-(3,5-Difluoro-phenyl)-2-(8-oxa-3-azabicyclo[3.2.1]oct-3-yl)-8-trifluoromethyl-6,7,8,9-tetrahydro-pyrimido[1,2-a]-pyrimidin-4-one]
16 | 10 to 100 nM | O=c1cc(N2CC3CCC(C2)O3)nc2n1CC[C@@H](C(F)(F)F)N2Cc1ccc(Cl)s1 [Example 162, (S)-9-(5-Chloro-thiophen-2-ylmethyl)-2-(8-oxa-3-aza-bicyclo[3.2.1]oct-3-yl)-8-trifluoromethyl-6,7,8,9-tetrahydro-pyrimido[1,2-a]-pyrimidin-4-one]
17 | < 10 nM | O=C(CN1c2nc(N3CC4CCC(C3)O4)cc(=O)n2CC[C@H]1C(F)(F)F)c1ccccc1 [Example 163, (S)-2-(8-Oxa-3-aza-bicyclo[3.2.1]oct-3-yl)-9-(2-oxo-2-phenyl-ethyl)-8-trifluoromethyl-6,7,8,9-tetrahydro-pyrimido[1,2-a]-pyrimidin-4-one]
18 | 10 to 100 nM | O=c1cc(N2CC3CCC(C2)O3)nc2n1CC[C@@H](C(F)(F)F)N2Cc1ccno1 [Example 164, (S)-9-Isoxazol-5-yl-methyl-2-(8-oxa-3-azabicyclo[3.2.1]oct-3-yl)-8-trifluoromethyl-6,7,8,9-tetrahydro-pyrimido[1,2-a]-pyrimidin-4-one]
19 | 10 to 100 nM | O=c1cc(N2CC3CCC(C2)O3)nc2n1CC[C@@H](C(F)(F)F)N2Cc1cnc(Cl)s1 [Example 165, (S)-9-(2-Chloro-thiazol-5-ylmethyl)-2-(8-oxa-3-aza-bicyclo[3.2.1]oct-3-yl)-8-trifluoromethyl-6,7,8,9-tetrahydro-pyrimido[1,2-a]-pyrimidin-4-one]
20 | 10 to 100 nM | O=c1cc(N2CC3CCC(C2)O3)nc2n1CC[C@@H](C(F)(F)F)N2Cc1ccnn1C(F)F [Example 166, (S)-9-(2-Difluoromethyl-2H-pyrazol-3-ylmethyl)-2-(8-oxa-3-aza-bicyclo[3.2.1]oct-3-yl)-8-trifluoromethyl-6,7,8,9-tetrahydro-pyrimido[1,2-a]-pyrimidin-4-one]
21 | 10 to 100 nM | O=c1cc(N2CC3CCC(C2)O3)nc2n1CC[C@@H](C(F)(F)F)N2Cc1ccn(C(F)F)n1 [Example 167, (S)-9-(1-Difluoromethyl-1H-pyrazol-3-ylmethyl)-2-(8-oxa-3-aza-bicyclo[3.2.1]oct-3-yl)-8-trifluoromethyl-6,7,8,9-tetrahydro-pyrimido[1,2-a]-pyrimidin-4-one]
22 | 10 to 100 nM | O=c1cc(N2CC3CCC(C2)O3)nc2n1CC[C@@H](C(F)(F)F)N2Cc1ccc(Cl)nc1 [Example 168, (S)-9-(6-Chloro-pyridin-3-ylmethyl)-2-(8-oxa-3-aza-bicyclo[3.2.1]oct-3-yl)-8-trifluoromethyl-6,7,8,9-tetrahydro-pyrimido[1,2-a]-pyrimidin-4-one]
23 | 10 to 100 nM | O=c1cc(N2CC3CCC(C2)O3)nc2n1CC[C@@H](C(F)(F)F)N2Cc1ccon1 [Example 169, (S)-9-Isoxazol-3-yl-methyl-2-(8-oxa-3-azabicyclo[3.2.1]oct-3-yl)-8-trifluoromethyl-6,7,8,9-tetrahydro-pyrimido[1,2-a]-pyrimidin-4-one]
24 | 10 to 100 nM | O=C(CN1c2nc(N3CC4CCC(C3)O4)cc(=O)n2CC[C@H]1C(F)(F)F)c1cccnc1 [Example 170, (S)-2-(8-Oxa-3-aza-bicyclo[3.2.1]oct-3-yl)-9-(2-oxo-2-pyridin-3-ylethyl)-8-trifluoromethyl-6,7,8,9-tetrahydro-pyrimido[1,2-a]-pyrimidin-4-one]
25 | 10 to 100 nM | O=C(CN1c2nc(N3CC4CCC(C3)O4)cc(=O)n2CC[C@H]1C(F)(F)F)c1ccccn1 [Example 171, (S)-2-(8-Oxa-3-aza-bicyclo[3.2.1]oct-3-yl)-9-(2-oxo-2-pyridin-2-ylethyl)-8-trifluoromethyl-6,7,8,9-tetrahydro-pyrimido[1,2-a]-pyrimidin-4-one]
26 | 10 to 100 nM | C[C@H]1COCCN1c1cc(=O)n2c(n1)N(Cc1ccc(Cl)s1)[C@H](C(F)(F)F)CC2 [Example 178, (S)-9-(5-Chloro-thiophen-2-ylmethyl)-2-((S)-3-methyl-morpholin-4-yl)-8-trifluoromethyl-6,7,8,9-tetrahydro-pyrimido[1,2-a]-pyrimidin-4-one]
27 | < 10 nM | C[C@@H]1COCCN1c1cc(=O)n2c(n1)N(CC(=O)c1ccccn1)[C@](C)(C(F)(F)F)C2 [Example 179, (S)-2-Methyl-7-((R)-3-methylmorpholin-4-yl)-1-(2-oxo-2-pyridin-2-ylethyl)-2-trifluoromethyl-2,3-dihydro-1H-imidazo[1,2-a]-pyrimidin-5-one]
28 | < 10 nM | C[C@@H]1COCCN1c1cc(=O)n2c(n1)N(CC(=O)c1cccnc1)[C@](C)(C(F)(F)F)C2 [Example 180, (S)-2-Methyl-7-((R)-3-methylmorpholin-4-yl)-1-(2-oxo-2-pyridin-3-ylethyl)-2-trifluoromethyl-2,3-dihydro-1H-imidazo[1,2-a]-pyrimidin-5-one]
